The record followed here is patent publication US20140336182A1, “Aurora Kinase Modulators and Method of Use” (Amgen Inc., priority 2013, published 2014).

The subject of the first assay is HeLa cells. Description: HeLa cell 24 hr ploidy assay (DNA content). The format is cell-based. Conditions: HeLa cells, 4N ploidy, average, read-out: 24h_4NPloidy EC50_IP (uM Avg). The method, boiled down: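 DNA content measured by Hoechst 33342 nuclear staining (0.5 ug/ml, 45 min RT) and high-content imaging of fixed HeLa cells after 24 h compound exposure in 0.25% DMSO. Fractions of 4N and >4N cells fitted to dose curves giving EC50 IP, EC50 transit, Max and Min.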
Take `Clc1ccc(-c2nnc(Nc3ccc(Sc4ccnc5cccnc45)cc3)c3ccccc23)cc1` [Example 33, N-(4-(1,5-naphthyridin-4-ylthio)phenyl)-4-(4-chlorophenyl)phthalazin-1-amine]: the EC50 was 0.002 µM.
Still for that read-out and setting: under `COc1cnc2c(Sc3ccc(Nc4nnc(N5CCN6CCCC[C@@H]6C5)c5ccccc45)cc3)ccnc2c1` [compound 584] stands 0.005 µM.

The assay is the same for the next values; noted with them: Homo sapiens, HeLa, 4N ploidy, average, read-out: 24h_4NPloidy EC50_IP (uM Avg).
Take `COc1cc2nccc(Oc3ccc(Nc4nnc(N5CCN(C)CC5)c5ccccc45)cc3)c2cn1` [compound 109]: the EC50 stood at 0.297 µM.
With `COc1cnc2c(Oc3ccc(Nc4nnc(-c5cc(C)ccn5)c5ccccc45)cc3)ccnc2c1` [compound 116, N-(4-((7-(methyloxy)-1,5-naphthyridin-4-yl)oxy)phenyl)-4-(4-methyl-2-pyridinyl)-1-phthalazinamine], the EC50 amounted to 0.179 µM.
For the compound `COc1cc2nccc(Oc3ccc(Nc4nnc(-c5ccc(C)c(C)c5)c5ccccc45)cc3)c2cc1OC` [compound 74], the EC50 came out at 0.018 µM.
Still for that read-out and setting: under `COc1cnc2c(Oc3ccc(Nc4nnc(-c5ccc(C)cc5)c5ccccc45)cc3)ccnc2c1` [compound 81] stands 0.008 µM; under `COc1cnc2c(Oc3ccc(Nc4nnc(-c5ccc6sccc6c5)c5ccccc45)cc3)ccnc2c1` [compound 142], 0.007 µM.

Staying with this assay, now noted: Homo sapiens, HeLa, HeLa cells, 4N ploidy, average, read-out: 24h_4NPloidy EC50_IP (uM Avg).
As to `CCc1cc(-c2cc(C)cs2)nnc1Nc1ccc(Oc2ccnc3cc(OC)cnc23)cc1` [compound 210], the EC50 amounted to 0.056 µM.
As to `COc1cnc2c(Sc3ccc(Nc4nnc(N5CCCCC5)c5ccccc45)cc3)ccnc2c1` [compound 346], the EC50 came to 0.016 µM.
With `COc1cnc2c(Oc3c(F)cc(Nc4nnc(-c5ccc(Cl)cc5)c5ccccc45)cc3F)ccnc2c1` [compound 454], the EC50 was determined as 0.008 µM.
In the case of `COc1ccc2nccc(Sc3ccc(Nc4nnc(-c5cccc(C)n5)c5ccccc45)cc3)c2n1` [compound 419], the EC50 came out at 0.124 µM.
As to `COCCn1ccc2nccc(Sc3ccc(Nc4nnc(-c5ccc(Cl)cc5)c5ccccc45)cc3)c21` [compound 469], the EC50 amounted to 0.003 µM.
The same measure, in the same setting: under `COc1cnc2c(Oc3ccc(Nc4nnc(-c5ccc(C)c(C)c5)c5ccccc45)cc3)ccnc2c1` [compound 192] stands 0.005 µM; under `Clc1ccc(-c2nnc(Nc3ccc(Sc4ccnc5ccsc45)cc3)c3ccccc23)cc1` [compound 332], 0.001 µM.
Same read-out and setting: under `COc1ccc2c(Cc3ccc(Nc4nnc(-c5ccc(Cl)cc5)c5ccccc45)cc3)ccnc2c1` [compound 328] stands 0.006 µM; under `c1ccc(-c2nnc(Nc3ccc(Oc4ccnc5ccc(N6CCOCC6)cc45)cc3)c3ccccc23)cc1` [compound 264], 0.387 µM.
`COc1cnc2c(Oc3ccc(Nc4nnc(N5CC[C@@H]6CCCC[C@H]6C5)c5ccccc45)cc3)ccnc2c1` [compound 587]: the EC50 turned out to be 0.14 µM.
Turning to `COc1cnc2c(Sc3ccc(Nc4nnc(-c5cccc(C)n5)c5ccccc45)cc3)ccnc2c1` [compound 420], the EC50 came out at 0.029 µM.
Consider `Clc1ccc(-c2nnc(Nc3ccc(Sc4ccnc5ccccc45)cc3)c3ccccc23)cc1` [compound 333], for which the EC50 was at least 1.2 µM.
Still for that read-out and setting: under `COc1cnc2c(Oc3ccc(Nc4nnc(-c5ccc6c(c5)OC(F)(F)O6)c5ccccc45)cc3)ccnc2c1` [compound 291] stands 0.045 µM; under `COc1cnc2c(Oc3ccc(Nc4nnc(-c5ccc(Cl)cc5C)c5ccccc45)cc3)ccnc2c1` [compound 233], 0.6 µM; under `CCc1cc(-c2ccc(C)cc2)nnc1Nc1ccc(Nc2ccnc3cc(C#N)ccc23)cc1` [compound 596], 0.084 µM.
The same measure, in the same setting: next, `Cc1csc(-c2nnc(Nc3ccc(Sc4ccnc5cc(C#N)sc45)cc3)c3ccccc23)c1` [compound 459]: 0.048 µM; `COc1cc2nccc(Sc3ccc(Nc4nnc(-c5cc(C)cs5)c5ccccc45)cc3)c2cn1` [compound 494]: 0.009 µM; `Cc1csc(-c2nnc(Nc3ccc(Sc4ccnc5ccncc45)cc3)c3ccccc23)c1` [compound 428]: 0.016 µM.
The same measure, in the same setting: under `COc1cnc2c(Sc3ccc(Nc4nnc(-c5ccc(F)cc5)c5ccccc45)cc3)ccnc2c1` [compound 356, 4-(4-fluorophenyl)-N-(4-(7-methoxy-1,5-naphthyridin-4-ylthio)phenyl)phthalazin-1-amine] stands 0.007 µM; under `COc1cnc2c(Sc3ccc(Nc4nnc(-c5cc(C)cs5)c5ccccc45)cc3F)ccnc2c1` [compound 528], 0.009 µM.
Consider `Clc1ccc(-c2nnc(Nc3ccc(Sc4ccnc5cc[nH]c45)cc3)c3ccccc23)cc1` [compound 463], for which the EC50 was found to be 0.01 µM.
On the same count and under the same terms, next, `CS(=O)(=O)CCOc1ccc2nccc(Sc3ccc(Nc4nnc(-c5ccc(Cl)cc5)c5ccccc45)cc3)c2c1` [Example 390, 4-(4-Chlorophenyl)-N-(4-(6-(2-(methylsulfonyl)ethoxy)quinolin-4-ylthio)phenyl) phthalazin-1-amine]: above 1.2 µM; `c1ccc(-c2nnc(Nc3ccc(Sc4ccnc5[nH]ccc45)cc3)c3ccccc23)cc1` [compound 329]: 0.057 µM.
On the same count and under the same terms, under `O=C(Nc1cc(Oc2ccc(Nc3nnc(-c4ccccc4)c4ccccc34)cc2F)ccn1)N1CCOCC1` [compound 179] stands 0.226 µM; under `COCCOc1ccc2nccc(Sc3ccc(Nc4nnc(-c5ccc(Cl)cc5)c5ccccc45)cc3)c2c1` [compound 434], 0.027 µM; under `COc1cnc2c(Oc3ccc(Nc4nnc(-c5ccc([S+](C)[O-])cc5)c5ccccc45)cc3)ccnc2c1` (stereo not shown) [compound 262], above 1.2 µM.
Same read-out and setting: under `CCOc1nc(-c2nnc(Nc3ccc(Sc4ccnc5cc(OC)cnc45)cc3)c3ccccc23)cs1` [compound 505] stands 0.022 µM.
For `COc1cnc2c(Oc3ccc(Nc4nnc(-c5csc6ccccc56)c5ccccc45)cc3)ccnc2c1` [compound 169], the EC50 is 0.027 µM.
On to `COc1cc(OC)c2c(Oc3ccc(Nc4nnc(-c5ccc(Cl)cc5)c5ccccc45)cc3)ncnc2c1` [compound 590], for which the EC50 stood at 0.004 µM.
Turning to `c1ccc(-c2nnc(Nc3ccc(Sc4ccnc5ccsc45)cc3)c3ccccc23)cc1` [compound 355], the EC50 turned out to be 0.015 µM.
On to `COc1cnc2c(Oc3ccc(Nc4nnc(-c5ccc(C)c(N)c5)c5ccccc45)cc3)ccnc2c1` [compound 209], for which the EC50 worked out at 0.004 µM.
As to `COc1cnc2c(Oc3ccc(Nc4nnc(-c5ccccc5)c(C)c4C)cc3)ccnc2c1` [compound 281], the EC50 was 0.378 µM.
Consider `Cc1ccc(-c2nnc(Nc3ccc(Oc4ccnc5cc(-c6cncn6C)sc45)cc3)c3ccccc23)nc1` [compound 255], for which the EC50 came to 0.014 µM.
In the case of `COc1cnc2c(Oc3ccc(Nc4nnc(-c5ccc(C)nc5F)c5ccccc45)cc3)ccnc2c1` [compound 178], the EC50 came out at 0.027 µM.
Same read-out and setting: under `COc1cc(OC)c2c(Sc3ccc(Nc4nnc(-c5ccccc5)c5ccccc45)cc3)ncnc2c1` [compound 581] stands 0.036 µM; under `COc1cc2c(Oc3ccc(Nc4nnc(-c5ccccc5)c5ccccc45)cc3)ccnc2cc1O` [compound 422], 0.01 µM; under `COc1cnc2c(Oc3ccc(Nc4nnc(C#CC(C)(C)C)c5ccccc45)cc3)ccnc2c1` [Example 31, 4-(3,3-dimethylbut-1-ynyl)-N-(4-(7-methoxy-1,5-naphthyridin-4-yloxy)phenyl)phthalazin-1-amine], 0.045 µM.
For the compound `COc1cnc2c(Sc3ccc(Nc4nnc(N5CC(C)CC(C)C5)c5ccccc45)cc3)ccnc2c1` (stereo not shown) [compound 556], the EC50 came to 0.026 µM.
With `N#Cc1ccc2c(Sc3ccc(Nc4nnc(-c5ccc(Cl)cc5)c5ccccc45)cc3)ccnc2c1` [compound 248, 4-((4-((4-(4-chlorophenyl)-1-phthalazinyl)amino)phenyl)thio)-7-quinolinecarbonitrile], the EC50 amounted to 0.022 µM.
The same measure, in the same setting: next, `COc1cnc2c(Sc3ccc(Nc4nnc(N5CC[C@@H](OC)C5)c5ccccc45)cc3)ccnc2c1` [compound 540]: 0.013 µM.
Still for that read-out and setting: under `COc1ccc2ncnc(Oc3ccc(Nc4nnc(-c5cc(C)cs5)c5ccccc45)cc3)c2c1` [compound 565] stands 0.03 µM; under `N#Cc1ccc2c(Oc3ccc(Nc4nnc(-c5ccc(Cl)c(C#N)c5)c5ccccc45)cc3)ccnc2c1` [compound 231], 0.067 µM; under `FC(F)(F)Oc1ccc2c(Sc3ccc(Nc4nnc(-c5ccccc5)c5ccccc45)cc3)ccnc2c1` [compound 497], 0.079 µM.
Still for that read-out and setting: next, `Cc1csc(-c2nnc(Nc3ccc(Sc4ccnc5ccn(C(C)C)c45)cc3)c3ccccc23)c1` [compound 472]: 0.007 µM.
On to `COc1cnc2c(Oc3ccc(Nc4nnc(-c5cccc(Cl)c5)c5ccccc45)cc3)ccnc2c1` [compound 219], for which the EC50 was 0.031 µM.
On the same count and under the same terms, under `Cc1ccc(-c2nnc(Nc3ccc(Sc4ccnc5cc(C#N)oc45)cc3)c3ccccc23)cc1N` [compound 490] stands 0.009 µM.
Still for that read-out and setting: next, `COc1cnc2c(Oc3ccc(Nc4nnc(-c5ccc(C(F)(F)F)c(Cl)c5)c5ccccc45)cc3)ccnc2c1` [compound 172, 4-(3-chloro-4-(trifluoromethyl)phenyl)-N-(4-((7-(methyloxy)-1,5-naphthyridin-4-yl)oxy)phenyl)-1-phthalazinamine]: 0.034 µM; `COc1cnc2c(Oc3ccc(Nc4nnc(-c5cc(F)cc(F)c5)c5ccccc45)cc3)ccnc2c1` [compound 539]: 0.081 µM.
Consider `COc1cnc2c(Oc3ccc(Nc4nnc(-c5ccc(S(C)(=O)=O)cc5)c5ccccc45)cc3)ccnc2c1` [compound 263], for which the EC50 was 0.138 µM.
`COc1cnc2c(Oc3ccc(Nc4nnc(-c5ccc(Cl)c(OCCS(C)(=O)=O)c5)c5ccccc45)cc3)ccnc2c1` [Example 394, 4-(4-Chloro-3-(2-(methylsulfonyl)ethoxy)phenyl)-N-(4-(7-methoxy-1,5-naphthyridin-4-yloxy)phenyl)phthalazin-1-amine]: the EC50 turned out to be 0.045 µM.
For `COc1cnc2c(Sc3ccc(Nc4nnc(Cl)c5ccccc45)cc3)ccnc2c1` [compound 536], the EC50 amounted to 0.031 µM.
